Source: the NIST ThermoML archive (doi:10.1021/je200964m)
Values joined by “and” are separate entries in the source; they are usually repeats but may differ in a detail not shown here. Equal entries are not always repeated. ± gives the expanded uncertainty stated by the source.

Assays:
[1] = mn = molality of the nth substance listed, in mol/kg; settings: 298.15 K, 100 kPa, Liquid, Vibrating tube method
[2] = molar heat capacity at constant pressure; mn = molality of the nth substance listed, in mol/kg; settings: 298.15 K, 100 kPa, Liquid, Flow calorimetry

CCC(=O)[O-].[Na+] [sodium propanoate] + O
Settings | mass density, [1] [kg/m3] | molar heat capacity at constant pressure, [2] [J/K/mol]
m1 = 0.01002 | 997.478 ± 0.059 | 75.35 ± 0.14
m1 = 0.02029 | 997.9 ± 0.059 | 75.37 ± 0.14
m1 = 0.04064 | 998.74 ± 0.059 | 75.41 ± 0.14
m1 = 0.06027 | 999.536 ± 0.059 | 75.44 ± 0.14
m1 = 0.08026 | 1000.38 ± 0.06 | 75.47 ± 0.14
m1 = 0.1002 | 1001.21 ± 0.059 | 75.51 ± 0.14
m1 = 0.1998 | 1005.24 ± 0.059 | 75.69 ± 0.14
m1 = 0.5005 | 1016.94 ± 0.061 | 76.31 ± 0.14
m1 = 0.7511 | 1026.37 ± 0.062 | 76.87 ± 0.14
m1 = 1 | 1035.33 ± 0.063 | 77.48 ± 0.14
m1 = 1.982 | 1067.68 ± 0.074 | 80.19 ± 0.14
m1 = 3.972 | 1119.87 ± 0.1 | 86.51 ± 0.16
m1 = 5.982 | 1158.32 ± 0.13 | 92.7 ± 0.17
m1 = 8.004 | 1185.89 ± 0.16 | 98.52 ± 0.17

CC(=O)[O-].[Na+] [sodium ethanoate] + O
Settings | mass density, [1] | molar heat capacity at constant pressure, [2] [J/K/mol]
m1 = 0.01999 | 997.898 ± 0.06 kg/m3 | 75.34 ± 0.14
m1 = 0.02177 | 997.982 ± 0.059 kg/m3 | 75.33 ± 0.14
m1 = 0.03988 | 998.731 ± 0.059 kg/m3 | 75.34 ± 0.14
m1 = 0.04259 | 998.856 ± 0.059 kg/m3 | 75.33 ± 0.14
m1 = 0.06003 | 999.574 ± 0.059 kg/m3 | 75.33 ± 0.14
m1 = 0.06004 | 999.577 ± 0.059 kg/m3 | 75.33 ± 0.14
m1 = 0.08011 | 1000.41 ± 0.059 kg/m3 | 75.34 ± 0.14
m1 = 0.08018 | 1000.42 ± 0.059 kg/m3 | 75.34 ± 0.14
m1 = 0.1002 | 1001.25 ± 0.059 kg/m3 and 1001.25 ± 0.06 kg/m3 | 75.34 ± 0.14
m1 = 0.25 | 1007.38 ± 0.06 kg/m3 | 75.37 ± 0.14
m1 = 0.4956 | 1017.13 ± 0.061 kg/m3 | 75.48 ± 0.14
m1 = 0.4998 | 1017.29 ± 0.061 kg/m3 | 75.48 ± 0.14
m1 = 0.9999 | 1036.14 ± 0.064 kg/m3 | 75.86 ± 0.14
m1 = 1.997 | 1070.48 ± 0.071 kg/m3 | 77.13 ± 0.14
m1 = 2.003 | 1070.59 ± 0.071 kg/m3 | 77.13 ± 0.14
m1 = 4.532 | 1141.59 ± 0.11 kg/m3 | 81.99 ± 0.15
